According to patent publication US20230121157A1, “ANTI-AGING CARE COMPOSITION COMPRISING PERFUMES” (BASF SE, priority 2020, published 2023):

Test: Free radicals generated inside a formulation containing perfume after UV irradiation (ESR, spin marker PCA)
Format: physicochemical
Settings: 0.1% (w/w) perfume in formulation, diluted 1:10 in water, 0.01 mM PCA; UVB 23,5 W/m^2, UVA 180 W/m^2
Protocol: To measure the free radicals generation inside a formulation after UV irradiation, the concentration of a photostable spin marker added to the tested samples is followed by Electron Spin Resonance (ESR) spectroscopy before and after UV irradiation of the tested samples. The photostable spin marker will promptly react with the free radical generated in the formulation after UV irradiation.
0.1% (w/w) of the perfume to be tested is incorporated into the formulation, the formulation is then diluted in distillated water (1:10 dilution factor) and a water solution of the spin marker PCA (2,2,5,5,-tetramethyl pyrrolidine N-oxyl) is added to obtain a spin marker concentration of 0.01 mM. […] The sample is inserted in a capillary quartz tube to perform ESR measurement before and after 20 minutes of UV irradiation. The irradiances as integrated value over the spectral ranges of the solar simulator can exemplarily be E=23,5W/m^2 for UVB and 180W/m^2 for UVA.
The percentage of UV-induced free radicals inside the formulation containing the perfume to be tested serves as indicator to the sensitivity of said perfume.
The Electron Spin Resonance (ESR) measurements were performed with a high sensitive X-band bench top Electron Spin Resonance Spectrometer MiniScope MS300, supplied from Magnettech GmbH Berlin, Germany.
To measure the free radicals generation inside the formulation after UV irradiation, the concentration of a photostable spin marker added to the tested samples was followed by
Electron Spin Resonance (ESR) spectroscopy before and after UV irradiation of the tested samples. The photostable spin marker promptly reacted with the free radical generated in the formulation after UV irradiation.
0.1% (w/w) of the perfume to be tested (compare to Table 1) was incorporated into the formulation. The formulation was then diluted in distillated water (1:10 dilution factor) and a water solution of the spin marker PCA (2,2,5,5,-tetramethyl pyrrolidine N-oxyl) was added to obtain a spin marker concentration of 0.01 mM. Knowing the concentration of the spin trap PCA within the formulation, the amount of reduced PCA was calculated. The sample was inserted in a capillary quartz tube to perform ESR measurement before and after 20 minutes of UV irradiation. The irradiances as integrated value over the spectral ranges of the solar simulator were E=23,5 W/m^2 for UVB and 180 W/m^2 for UVA.

In order of rising “% free radicals after 20 min UV irradiation” value:
1. CC(CC=O)CCCC(C)(C)O (stereo not shown) [Hydroxycitronellal]  3.7%
2. OCc1ccccc1 [Benzyl Alcohol]  4.4%
3. CC(C)=CCCC(C)CCO (stereo not shown) [Citronellol, 3,7-dimethyloct-6-en-1-ol]  6.6%
4. O=c1ccc2ccccc2o1 [Coumarin, 2H-chromen-2-one]  11.5%
5. CC(C)=CCCC(C)=CC=O [Citral, 3,7-dimethylocta-2,6-dienal]  16.5%
6. O=C(OCc1ccccc1)c1ccccc1O [Benzyl Salicylate, benzyl 2-hydroxybenzoate]  17.5%
7. COc1cc(C=O)ccc1O [Vanillin, 4-hydroxy-3-methoxybenzaldehyde]  85.9%
